Earlier results as cited in patent US9714250B2, “Crystalline forms of temozolomide and the method for preparing same” (Jiangsu Tasly Diyi Pharmaceutical Co., Ltd., priority 2013, dated 2017).

Details: heated to approximately 30° C.; in US20050187206; cited from earlier work

Cn1nnc2c(C(N)=O)ncn2c1=O [Form I, Temozolomide]
Crystalline form transformation on heating: transformed into crystalline Form II
